The target in test [1] is BTK wildtype protein (Homo sapiens (Human), UniProt Q06187). Kind of test: BTK wildtype HTRF displacement assay. In kind it is binding. As to conditions: 1-hour incubation; read-out: BTK (wt) IC50. The method, boiled down:
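Full-length N-terminal GST-tagged BTK incubated 1 h at room temperature with compound (6 doses, four-fold dilutions from 5 μM top) plus kinase tracer 239 and anti-GST-Tb antibody. Tracer displacement read as TR-FRET 665/620 ratio, background-subtracted using no-protein control. IC50 from four-parameter fit constrained 0–100% inhibition.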
Background: Time-resolved FRET reads energy transfer from a long-lived donor to a nearby acceptor.

In test [2] the target is BTK C481S protein (Homo sapiens (Human), UniProt Q06187, C481S). Kind of test: BTK C481S HTRF displacement assay. It counts as binding. As to conditions: 1-hour incubation. The method, boiled down:
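N-terminal GST-tagged BTK C481S (2-659) incubated 1 hour at room temperature with compound (6 doses, four-fold from 5 μM), 50 nM kinase tracer 239 and anti-GST-Tb antibody. TR-FRET 665/620 ratio, background-subtracted; IC50 from constrained four-parameter fit. KI=IC50/(1+[Tracer]/Kd), tracer Kd 54 nM.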

BTK wildtype protein, sequence (Q06187 2-659): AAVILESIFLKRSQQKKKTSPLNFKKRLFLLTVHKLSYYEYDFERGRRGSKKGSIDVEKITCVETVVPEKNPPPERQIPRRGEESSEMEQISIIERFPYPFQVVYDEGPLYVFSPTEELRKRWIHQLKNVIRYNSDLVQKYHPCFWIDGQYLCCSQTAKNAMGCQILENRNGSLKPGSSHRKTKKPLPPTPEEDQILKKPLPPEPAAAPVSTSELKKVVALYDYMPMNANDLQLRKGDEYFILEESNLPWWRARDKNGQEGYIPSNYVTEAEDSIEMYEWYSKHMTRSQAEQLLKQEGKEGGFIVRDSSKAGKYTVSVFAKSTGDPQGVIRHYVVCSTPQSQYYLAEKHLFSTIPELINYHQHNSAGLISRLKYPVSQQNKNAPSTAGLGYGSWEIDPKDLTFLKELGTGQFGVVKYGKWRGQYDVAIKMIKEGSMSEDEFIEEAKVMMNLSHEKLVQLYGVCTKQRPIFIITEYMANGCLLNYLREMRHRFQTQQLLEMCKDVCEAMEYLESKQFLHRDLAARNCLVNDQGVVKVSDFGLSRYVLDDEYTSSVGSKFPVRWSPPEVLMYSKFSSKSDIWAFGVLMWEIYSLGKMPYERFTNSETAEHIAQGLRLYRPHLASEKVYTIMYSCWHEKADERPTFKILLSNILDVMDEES
BTK C481S protein, sequence (Q06187 2-659 C481S): as the sequence (Q06187 2-659) above, with C480S counted along it

Take `COc1ccc(F)cc1C(=O)NCc1ccc(-c2nn(C(Cc3ccncc3)CN(C)C(=O)n3cncn3)c3ncnc(N)c23)cc1` (stereo not drawn) [Compound 281]: the IC50 in test [1] and in test [2] was over 1 µM throughout.
With `COc1ccc(F)cc1C(=O)NCc1ccc(-c2nn(Cc3ccccc3N(C)C(=O)n3cncn3)c3ncnc(N)c23)cc1` [Compound 141, N-(2-((4-amino-3-(4-((5-fluoro-2-methoxybenzamido)methyl)phenyl)-1H-pyrazolo[3,4-d]pyrimidin-1-yl)methyl)phenyl)-N-methyl-1H-1,2,4-triazole-1-carboxamide], the IC50 (usually the concentration that gives 50% inhibition) is at most 1 µM in test [1] and over 1 µM in test [2].
Turning to `COc1ccc(F)cc1C(=O)NCc1ccc(-c2nn(C[C@@H]3C[C@@H](O)CN3C(=O)n3cncn3)c3ncnc(N)c23)cc1` [Compound 224, N-(4-(4-amino-1-(((2S,4R)-4-hydroxy-1-(1H-1,2,4-triazole-1-carbonyl)pyrrolidin-2-yl)methyl)-1H-pyrazolo[3,4-d]pyrimidin-3-yl)benzyl)-5-fluoro-2-methoxybenzamide], the IC50 in test [1] and in test [2] was over 1 µM throughout.
Regarding `Cc1[nH]c2c(C(N)=O)cc(F)c(N3CCC4(CC3)CCN4C(=O)n3cncn3)c2c1C` [Compound 142, 4-(1-(1H-1,2,4-triazole-1-carbonyl)-1,7-diazaspiro[3.5]nonan-7-yl)-5-fluoro-2,3-dimethyl-1H-indole-7-carboxamide], the IC50 in test [1] and in test [2] was at most 1 µM in each case.
On to `COc1ccc(F)cc1C(=O)NCc1ccc(-c2nn(CC3CCCC3N(C)C(=O)n3cncn3)c3ncnc(N)c23)cc1` (stereo not drawn) [Compound 211, N-(2-((4-amino-3-(4-((5-fluoro-2-methoxybenzamido)methyl)phenyl)-1H-pyrazolo[3,4-d]pyrimidin-1-yl)methyl)cyclopentyl)-N-methyl-1H-1,2,4-triazole-1-carboxamide], for which the IC50 in test [1] and in test [2] was at most 1 µM throughout.
For `CCN(CC1CCNc2c(C(N)=O)c(-c3ccc(Oc4ccccc4)cc3)nn21)C(=O)n1cncn1` (stereo not drawn) [Compound 120, 7-((N-ethyl-1H-1,2,4-triazole-1-carboxamido)methyl)-2-(4-phenoxyphenyl)-4,5,6,7-tetrahydro-pyrazolo[1,5-a]pyrimidine-3-carboxamide], the IC50 in test [1] and in test [2] was over 1 µM throughout.
On to `COc1ccc(F)cc1C(=O)NCc1ccc(-c2nn(C3CCCCC3CN(C)C(=O)n3cncn3)c3ncnc(N)c23)cc1` (stereo not drawn) [Compound 198, N-((2-(4-amino-3-(4-((5-fluoro-2-methoxybenzamido)methyl)phenyl)-1H-pyrazolo[3,4-d]pyrimidin-1-yl)cyclohexyl)methyl)-N-methyl-1H-1,2,4-triazole-1-carboxamide], for which the IC50 in test [1] and in test [2] was at most 1 µM in each case.
With `COc1ccc(F)cc1C(=O)NCc1ccc(-c2nn(C(CCN(C)C(=O)n3cncn3)Cc3ccccc3)c3ncnc(N)c23)cc1` (stereo not drawn) [Compound 195, N-(3-(4-amino-3-(4-((5-fluoro-2-methoxybenzamido)methyl)phenyl)-1H-pyrazolo[3,4-d]pyrimidin-1-yl)-4-phenylbutyl)-N-methyl-1H-1,2,4-triazole-1-carboxamide], the IC50 in test [1] and in test [2] was over 1 µM each time.
With `COc1ccc(F)cc1C(=O)NCc1ccc(-c2nn(C3CCC3N(C)C(=O)n3cncn3)c3ncnc(N)c23)cc1` (stereo not drawn) [Compound 181, N-(2-(4-amino-3-(4-((5-fluoro-2-methoxybenzamido)methyl)phenyl)-1H-pyrazolo[3,4-d]pyrimidin-1-yl)cyclobutyl)-N-methyl-1H-1,2,4-triazole-1-carboxamide], the IC50 in test [1] and in test [2] was at most 1 µM in each case.
In the case of `COc1ccc(F)cc1C(=O)NCc1ccc(-c2nn(C[C@@H]3CC[C@H]3N(C)C(=O)n3cncn3)c(N)c2C(N)=O)cc1` [Compound 121, N-((1R,2S)-2-((5-amino-4-carbamoyl-3-(4-((5-fluoro-2-methoxybenzamido)methyl)phenyl)-1H-pyrazol-1-yl)methyl)cyclobutyl)-N-methyl-1H-1,2,4-triazole-1-carboxamide], the 50% inhibitory concentration (IC50) in test [1] and in test [2] was at most 1 µM each time.
For the compound `Nc1ncnc2c1c(-c1ccc(Oc3ccccc3)cc1)nn2CC1CCCCN1C(=O)n1cncn1` (stereo not drawn) [Compound 267, (2-((4-amino-3-(4-phenoxyphenyl)-1H-pyrazolo[3,4-d]pyrimidin-1-yl)methyl)piperidin-1-yl)(1H-1,2,4-triazol-1-yl)methanone], the IC50 in test [1] and in test [2] was at most 1 µM throughout.
On to `NC(=O)c1c(-c2ccc(Oc3ccccc3)cc2)nn(C2CCCC3C2CCN3C(=O)n2cncn2)c1N` (stereo not drawn) [Compound 197, 1-(1-(1H-1,2,4-triazole-1-carbonyl)octahydro-1H-indol-4-yl)-5-amino-3-(4-phenoxy-phenyl)-1H-pyrazole-4-carboxamide], for which the IC50 in test [1] and in test [2] was at most 1 µM throughout.
As for `COc1ccc(F)cc1C(=O)NCc1ccc(-c2nn([C@@H]3CCC[C@@H](N(C)C(=O)n4cncn4)C3)c(N)c2C(N)=O)cc1` (relative stereo) [Compound 194, N-((1R,3R)-3-(5-amino-4-carbamoyl-3-(4-((5-fluoro-2-methoxybenzamido)methyl)phenyl)-1H-pyrazol-1-yl)cyclohexyl)-N-methyl-1H-1,2,4-triazole-1-carboxamide], the IC50 in test [1] and in test [2] was at most 1 µM each time.
In the case of `COc1ccc(F)cc1C(=O)NCc1ccc(-c2nn(C(CC(F)F)CN(C)C(=O)n3cncn3)c3ncnc(N)c23)cc1` (stereo not drawn) [Compound 257, N-(2-(4-amino-3-(4-((5-fluoro-2-methoxybenzamido)methyl)phenyl)-1H-pyrazolo[3,4-d]pyrimidin-1-yl)-4,4-difluorobutyl)-N-methyl-1H-1,2,4-triazole-1-carboxamide], the IC50 in test [1] and in test [2] was over 1 µM throughout.
Take `COc1ccc(C)cc1C(=O)NCc1ccc(-c2nn(C3CCCC(N(C)C(=O)n4cncn4)C3)c3ncnc(N)c23)cc1` (stereo not drawn) [Compound 215, N-(3-(4-amino-3-(4-((2-methoxy-5-methylbenzamido)methyl)phenyl)-1H-pyrazolo[3,4-d]pyrimidin-1-yl)cyclohexyl)-N-methyl-1H-1,2,4-triazole-1-carboxamide]: the IC50 in test [1] and in test [2] was at most 1 µM each time.
On to `NC(=O)c1c(-c2ccc(Oc3ccccc3)cc2)nn2c1NCCC2C1CCN(C(=O)n2cncn2)C1` (stereo not drawn) [Compound 282, 7-(1-(1H-1,2,4-triazole-1-carbonyl)pyrrolidin-3-yl)-2-(4-phenoxyphenyl)-4,5,6,7-tetrahydropyrazolo[1,5-a] pyrimidine-3-carboxamide], for which the IC50 in test [1] and in test [2] was at most 1 µM in each case.
With `NC(=O)c1c(-c2ccc(Oc3ccccc3)cc2)nn2c1NCC[C@H]2[C@H]1CCCCN1C(=O)n1cncn1` [Compound 266, (S)-7-((R)-1-(1H-1,2,4-triazole-1-carbonyl)piperidin-2-yl)-2-(4-phenoxyphenyl)-4,5,6,7-tetrahydropyrazolo[1,5-a] pyrimidine-3-carboxamide], the IC50 in test [1] and in test [2] was at most 1 µM throughout.
`Cc1[nH]c2c(C(N)=O)cc(F)c(N3CCC4(CCN4C(=O)n4cncn4)C3)c2c1C` (stereo not drawn) [Compound 105, 4-(1-(1H-1,2,4-triazole-1-carbonyl)-1,6-diazaspiro[3.4]octan-6-yl)-5-fluoro-2,3-dimethyl-1H-indole-7-carboxamide]: the IC50 in test [1] and in test [2] was at most 1 µM throughout.
